Patent KR20180000079A, “Kahweol을 포함하는 항비만 조성물” (경북대학교 산학협력단, priority 2016, dated 2018)

Tests used:
Format in all cases: cell-based, mouse
[1] = test system: 3T3-L1 adipocytes [3T3-L1 지방세포]; experiment: Oil Red O staining: differentiation and lipid accumulation in 3T3-L1 cells
adiponectin [아디포넥틴] [2] = experiment: RT-PCR, adiponectin mRNA expression in 3T3-L1 cells; conditions: 40 μM
[3] = test system: 3T3-L1 adipocytes [3T3-L1 지방세포]; experiment: Triglyceride (TG) quantification in 3T3-L1 cells (colorimetric kit)
PPARγ [4] = experiment: RT-PCR, PPARγ mRNA expression in 3T3-L1 cells; conditions: 40 μM
C/EBPα [5] = experiment: Western blot, C/EBPα protein expression in 3T3-L1 adipocytes; conditions: 40 μM
PPARγ [6] = experiment: Western blot, PPARγ protein expression in 3T3-L1 adipocytes; conditions: 40 μM
[7] = test system: 3T3-L1 preadipocytes [3T3-L1 전구 지방세포]; experiment: MTT assay, cytotoxicity in 3T3-L1 preadipocytes; conditions: 3T3-L1 cells, 4 or 40 μM, 24 or 48 h
adiponectin [아디포넥틴] [8] = experiment: Western blot, adiponectin protein expression in 3T3-L1 adipocytes; conditions: 40 μM
C/EBPα [9] = experiment: RT-PCR, C/EBPα mRNA expression in 3T3-L1 cells; conditions: 40 μM

Q: Which results are given for `C[C@@]12C=Cc3occc3[C@H]1CC[C@@]13C[C@@H](CC[C@H]12)[C@@](O)(CO)C3` [Kahweol]?
A: differentiation of 3T3-L1 cells ([1]; 40 μM, 8 days): 분화가 억제됨; cell morphology ([1]; 40 μM, 8 days, similar to preadipocytes (Fig. 3A)): 소형 스핀들-형상 형태; lipid accumulation inhibitory activity compared with positive control ([1]; 3T3-L1 cells, 40 μM): 양성 대조군 보다 우수한; intracellular lipid accumulation ([1]; 3T3-L1 cells, Oil Red O): 억제함; adiponectin mRNA level (adiponectin [아디포넥틴] [2]): 감소; TG formation [3]: 억제함; TG formation inhibitory activity compared with positive control ([3]; 40 μM): 양성 대조군 보다 우수한; inhibition at 40 µM ([3]; Mus musculus, 40 μM, read-out: decrease of intracellular TG level): 43.3%; PPARγ mRNA level (PPARγ [4]): 현저히 감소; C/EBPα protein expression (C/EBPα [5]): 억제됨; PPARγ protein expression (PPARγ [6]): 억제됨; cytotoxic effect [7]: 세포 독성 효과를 보이지 않았다; adiponectin protein expression (adiponectin [아디포넥틴] [8]): 억제됨; C/EBPα mRNA level (C/EBPα [9]): 현저히 감소
